Legend:
Adenosine receptor A2a = Adenosine receptor A2a (Homo sapiens, UniProt P29274); test: Displacement of [3H]SCH-58261 from human recombinant adenosine A2A receptor expressed in HEK293 cells; type: cell-based
Adenosine receptor A1 = molecular target: T1, Adenosine receptor A1 (Homo sapiens, UniProt P30542); test: Displacement of [3H]DPCPX from human recombinant adenosine A1 receptor expressed in CHOK1 cells; type: cell-based, CHO-K1
T1 sequence (P30542 whole entry): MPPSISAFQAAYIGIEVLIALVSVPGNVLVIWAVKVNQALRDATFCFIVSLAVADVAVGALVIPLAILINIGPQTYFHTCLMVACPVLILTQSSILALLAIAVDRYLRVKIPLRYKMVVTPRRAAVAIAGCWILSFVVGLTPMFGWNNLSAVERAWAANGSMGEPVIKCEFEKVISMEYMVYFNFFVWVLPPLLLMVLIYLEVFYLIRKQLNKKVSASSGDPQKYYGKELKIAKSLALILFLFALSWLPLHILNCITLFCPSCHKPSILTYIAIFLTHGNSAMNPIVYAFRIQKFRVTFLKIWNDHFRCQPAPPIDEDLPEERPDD

Homo sapiens = species: Homo sapiens; test: Selectivity ratio of Ki for human recombinant adenosine A1 receptor to Ki for human recombinant adenosine A2A receptor

Chain of Adenosine receptor A2a (P29274 whole entry): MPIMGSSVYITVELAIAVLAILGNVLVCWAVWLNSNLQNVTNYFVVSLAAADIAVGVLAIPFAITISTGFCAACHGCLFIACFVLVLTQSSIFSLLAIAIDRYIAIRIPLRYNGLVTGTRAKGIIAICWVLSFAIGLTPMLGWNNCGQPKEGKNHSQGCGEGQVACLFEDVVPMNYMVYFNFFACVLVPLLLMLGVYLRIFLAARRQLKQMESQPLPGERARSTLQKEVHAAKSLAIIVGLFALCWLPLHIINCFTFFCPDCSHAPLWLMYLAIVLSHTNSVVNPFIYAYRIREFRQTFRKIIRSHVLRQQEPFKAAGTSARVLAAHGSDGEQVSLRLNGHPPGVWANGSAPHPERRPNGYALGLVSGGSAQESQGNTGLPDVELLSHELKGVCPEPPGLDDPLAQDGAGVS

In the case of CC(C)CNc1nc(-c2ccco2)c(C(=O)c2ccccc2)s1, the Ki (Adenosine receptor A2a) is reported as 0.089 µM, the Ki (Adenosine receptor A1) is reported as 1.28 µM and the Ratio Ki (Homo sapiens) is reported as 14.
O=C(c1ccccc1)c1sc(NCc2ccc(F)c(F)c2)nc1-c1ccco1 was tested, and the Ki (Adenosine receptor A2a) was 0.064 µM, the Ki (Adenosine receptor A1) was greater than 7.5 µM and the Ratio Ki (Homo sapiens) was greater than 120.
In the case of CN(Cc1ccco1)c1nc(-c2ccco2)c(C(=O)c2ccccc2)s1, the Ki (Adenosine receptor A2a) is reported as 0.16 µM, the Ki (Adenosine receptor A1) is reported as 3.42 µM and the Ratio Ki (Homo sapiens) is reported as 21.
CN(Cc1ccccc1)c1nc(-c2ccco2)c(C(=O)c2ccccc2)s1 was tested, and the Ki (Adenosine receptor A2a) was 2.8 µM, the Ki (Adenosine receptor A1) was 9.46 µM and the Ratio Ki (Homo sapiens) was 3.4.
O=C(c1ccccc1)c1sc(N(CCc2cccs2)Cc2ccccc2)nc1-c1ccco1 showed a Ki (Adenosine receptor A2a) of 7.14 µM, a Ki (Adenosine receptor A1) greater than 10 µM and a Ratio Ki (Homo sapiens) greater than 1.4.
In the case of O=C(c1ccccc1)c1sc(NCCc2cccs2)nc1-c1ccco1, the Ki (Adenosine receptor A2a) is reported as 0.012 µM, the Ki (Adenosine receptor A1) is reported as greater than 6.7 µM and the Ratio Ki (Homo sapiens) is reported as greater than 580.
CC(=O)N1CCC(Nc2nc(-c3ccco3)c(C(=O)c3ccccc3)s2)CC1 gave a Ki (Adenosine receptor A2a) of 0.455 µM, a Ki (Adenosine receptor A1) of 1.24 µM and a Ratio Ki (Homo sapiens) of 3.
O=C(c1ccccc1)c1sc(NCc2cccs2)nc1-c1ccco1 gave a Ki (Adenosine receptor A2a) of 0.054 µM, a Ki (Adenosine receptor A1) of 2.99 µM and a Ratio Ki (Homo sapiens) of 56.
Work on O=C(c1ccccc1)c1sc(NC2CCN(C(=O)c3ccccc3F)CC2)nc1-c1ccco1 yielded a Ki (Adenosine receptor A2a) of 0.105 µM, a Ki (Adenosine receptor A1) of 3.71 µM and a Ratio Ki (Homo sapiens) of 35.
For COC(C)CNc1nc(-c2ccco2)c(C(=O)c2ccccc2)s1 (configuration not stated), the Ki (Adenosine receptor A2a) was 0.154 µM, the Ki (Adenosine receptor A1) was 3.97 µM and the Ratio Ki (Homo sapiens) was 26.
Compound CC(=O)NCCNc1nc(-c2ccco2)c(C(=O)c2ccccc2)s1 has a Ki (Adenosine receptor A2a) of 0.281 µM, a Ki (Adenosine receptor A1) of 2.42 µM and a Ratio Ki (Homo sapiens) of 9.
Work on CN(CCc1cccs1)c1nc(-c2ccco2)c(C(=O)c2ccccc2)s1 yielded a Ki (Adenosine receptor A2a) of 8.17 µM, a Ki (Adenosine receptor A1) greater than 10 µM and a Ratio Ki (Homo sapiens) greater than 1.2.
CNc1nc(-c2ccco2)c(C(=O)c2ccccc2)s1 gave a Ki (Adenosine receptor A2a) of 0.067 µM, a Ki (Adenosine receptor A1) of 3.58 µM and a Ratio Ki (Homo sapiens) of 54.
Work on O=C(c1ccccc1)c1sc(N(Cc2ccccc2)Cc2ccco2)nc1-c1ccco1 yielded a Ki (Adenosine receptor A2a) of 0.088 µM, a Ki (Adenosine receptor A1) greater than 10 µM and a Ratio Ki (Homo sapiens) greater than 115.
Work on O=C(c1ccccc1)c1sc(NCCCc2ccccc2)nc1-c1ccco1 yielded a Ki (Adenosine receptor A2a) of 0.105 µM, a Ki (Adenosine receptor A1) of 6.3 µM and a Ratio Ki (Homo sapiens) of 60.
O=C(c1ccccc1)c1sc(NCc2ccco2)nc1-c1ccco1 gave a Ki (Adenosine receptor A2a) of 0.043 µM, a Ki (Adenosine receptor A1) of 1.46 µM and a Ratio Ki (Homo sapiens) of 35.
COCCNc1nc(-c2ccco2)c(C(=O)c2ccccc2)s1 showed a Ki (Adenosine receptor A2a) of 0.195 µM, a Ki (Adenosine receptor A1) of 6.78 µM and a Ratio Ki (Homo sapiens) of 35.
CN(C)c1nc(-c2ccco2)c(C(=O)c2ccccc2)s1 gave a Ki (Adenosine receptor A2a) of 6.82 µM, a Ki (Adenosine receptor A1) greater than 10 µM and a Ratio Ki (Homo sapiens) greater than 1.5.
With O=C(c1ccccc1)c1sc(NCCc2ccc3c(c2)OCO3)nc1-c1ccco1 the Ki (Adenosine receptor A2a) was 0.061 µM, the Ki (Adenosine receptor A1) was 3.5 µM and the Ratio Ki (Homo sapiens) was 58.

Source: ChEMBL document CHEMBL1154525, “Synthesis of 2-amino-5-benzoyl-4-(2-furyl)thiazoles as adenosine A(2A) receptor antagonists” (Bioorg Med Chem Lett, 2009)
